The source of these data is patent US20020081661A1 (Synaptic Pharmaceutical Corporation, priority 1992, published 2002).

The target in assay [1] is T1, rat 5-HT4 (CG-7) receptor (Rattus norvegicus, UniProt Q62758).
T1 construct: two individual full length cDNA clones, S10-87 and S10-95, were isolated; expressed in transfected cells; host or cells: COS-7 (transient, DEAE-dextran)
Briefly: cAMP formation in intact Cos-7 cells transiently expressing CG-7. The class given is cell-based. The settings on record: for agonist / antagonist character: CG-7, cAMP response; for I. A. (intrinsic activity): CG-7, maximum response normalized to 5-HT maximum = 1.0. The method, then: (§1) Measurement of cAMP Formation: The transiently transfected Cos-7 cells were incubated in Dulbecco's modified Eagle's medium, 5 mM theophylline, 10 mM Hepes (4-[2-Hydroxyethyl]-1-piperazineethanesulfonic acid), 10 μM pargyline, and/or appropriate concentrations of antagonists for 20 minutes at 37° C., 5% CO2. […] The media was aspirated and the reaction stopped by the addition of 100 mM HCl. The plates were stored at 4° C. for 15 minutes, centrifuged for 5 minutes, 500×g to pellet cellular debris, and the supernatant aliquotted and stored at −20° C. prior to assessment of cAMP formation by radioimmunoassay (cAMP Radioimmunoassay kit, Advanced Magnetics, Cambridge, Mass.). Radioactivity was quantitated using a Packard COBRA Auto Gamma Counter equipped with data reduction software. Functional data was fitted to a four parameter logistic equation to obtain response parameters (EC50, Emax, nH; Inplot, GraphPad, San Diego, Calif.).
In general terms: cAMP levels reflect the balance of adenylyl cyclase and phosphodiesterase activity.

Assay [2] addresses T2, rat 5-HT4 (CG-8) receptor (Rattus norvegicus, UniProt Q62758).
T2 construct: two individual full length cDNA clones, S10-87 and S10-95, were isolated; expressed in transfected cells; host or cells: COS-7 (transient, DEAE-dextran)
Put plainly: cAMP formation in intact Cos-7 cells transiently expressing CG-8. In kind it is cell-based. The settings on record: for agonist / antagonist character: CG-8, cAMP response; for I. A. (intrinsic activity): CG-8, maximum response normalized to 5-HT maximum = 1.0. The method, then:
as §1

Assay [3] addresses T3, rat 5-HT4 receptor S10-95 (CG-8) (Rattus norvegicus, UniProt Q62758). Briefly: biochemical.
Procedure: (§2) For transient expression, Cos-7 cells were transfected by the DEAE-Dextran method, using 1 μg of DNA /10^6 cells (Warden, D. and H. V. Thorne, 1968).
(§3) Membrane Preparation: Membranes were prepared from transiently transfected COS-7 cells which were grown to 100% confluence. The cells were washed twice with phosphate-buffered saline, scraped from the culture dishes into 5 ml of ice-cold phosphate-buffered saline, and centrifuged at 200×g for 5 min at 4′. The pellet was resuspended in 2.5 ml of ice-cold Tris buffer (20 mM Tris -HCl, pH 7.4 at 23°, 5 mM EDTA), and homogenized by a Wheaton tissue grinder. The lysate was subsequently centrifuged at 200×g for 5 min at 4° to pellet large fragments which were discarded. The supernatant was collected and centrifuged at 40,000×g for 20 min at 4°. The pellet resulting from this centrifugation was washed once in ice-cold Tris wash buffer and finally resuspended in a final buffer containing 50 mM Tris-HCl and 0.5 mM EDTA, pH 7.4 at 23°. Membrane preparations were kept on ice and utilized within two hr for the radioligand binding assays. Protein concentrations were determined by the method of Bradford (1976) using bovine serum albumin as the standard.
(§4) The binding profile of drugs in competition experiments was established using 7 concentrations of compound. Incubation times were 30 min for both saturation and displacement studies. […] Binding was initiated by the addition of 50 μl membrane homogenates (10-20 μg). The reaction was terminated by rapid filtration through presoaked (0.5% polyethyleneimine) filters using 48R Cell Brandel Harvester (Gaithersburg, Md.). Subsequently, filters were washed for 5 sec with ice cold buffer (50 mM Tris HCL, pH 7.4 at 4° C.), dried and placed into vials containing 2.5 ml of Readi-Safe (Beckman, Fullerton, Calif.), and radioactivity was measured using a Beckman LS 6500C liquid scintillation counter. […] Binding data were analyzed by computer-assisted nonlinear regression analysis (Accufit and Accucomp, Lundon Software, Chagrin Falls, Ohio). […]
The target in assay [4] is T4, rat 5-HT4 receptor S10-87 (CG-7) (Rattus norvegicus, UniProt Q62758). Put plainly: [3H]5-HT radioligand binding (saturation and displacement), membranes of Cos-7 cells transiently expressing rat S10-87 (CG-7).
Procedure: (§5) Membrane Preparation: Membranes were prepared from transiently transfected COS-7 cells which were grown to 100% confluence. The cells were washed twice with phosphate-buffered saline, scraped from the culture dishes into 5 ml of ice-cold phosphate-buffered saline, and centrifuged at 200×g for 5 min at 4′. The pellet was resuspended in 2.5 ml of ice-cold Tris buffer (20 mM Tris -HCl, pH 7.4 at 23°, 5 mM EDTA), and homogenized by a Wheaton tissue grinder. The lysate was subsequently centrifuged at 200×g for 5 min at 4° to pellet large fragments which were discarded. The supernatant was collected and centrifuged at 40,000×g for 20 min at 4°. The pellet resulting from this centrifugation was washed once in ice-cold Tris wash buffer and finally resuspended in a final buffer containing 50 mM Tris-HCl and 0.5 mM EDTA, pH 7.4 at 23°. Membrane preparations were kept on ice and utilized within two hr for the radioligand binding assays.
(§6) The binding profile of drugs in competition experiments was established using 7 concentrations of compound. Incubation times were 30 min for both saturation and displacement studies. […] Binding was initiated by the addition of 50 μl membrane homogenates (10-20 μg). The reaction was terminated by rapid filtration through presoaked (0.5% polyethyleneimine) filters using 48R Cell Brandel Harvester (Gaithersburg, Md.). Subsequently, filters were washed for 5 sec with ice cold buffer (50 mM Tris HCL, pH 7.4 at 4° C.), dried and placed into vials containing 2.5 ml of Readi-Safe (Beckman, Fullerton, Calif.), and radioactivity was measured using a Beckman LS 6500C liquid scintillation counter. […] Binding data were analyzed by computer-assisted nonlinear regression analysis (Accufit and Accucomp, Lundon Software, Chagrin Falls, Ohio).
Assay [5] addresses T3, rat 5-HT4 receptor S10-95 (CG-8). Briefly: [3H]GR113808 binding (saturation and displacement), COS-7 membranes, rat clone CG-8. Further details: two individual full length cDNA clones, S10-87 and S10-95, were isolated; expressed in transfected cells; host or cells: COS-7 (transient, DEAE-dextran). The conditions noted are these: for Ki: CG-8, 0.2-0.4 nM [3H]GR113808, single experiment, read-out: Affinity estimate K1.
Procedure: as §5
(§7) The binding profile of drugs in competition experiments was established using 10-12 concentrations of compound. Incubation times were 30 min for both saturation and displacement studies.

Assay [6] has as its target T5, human 5-HT4 receptor S10-95 (CG-17) (Homo sapiens, UniProt Q13639).
T5 construct: Isolation of the full length human S10-95 cDNA clone; expressed in transfected cells; host or cells: COS-7 (transient, DEAE-dextran)
Briefly: [3H]5-HT displacement binding, human CG-17 clone.
Procedure: as §5, §6

Assay [7] concerns the target T3, rat 5-HT4 receptor S10-95 (CG-8).
Procedure: as §2, §3, §4
Assay [8] has the same target. Put plainly: [3H]5-HT radioligand binding (displacement), membranes of Cos-7 cells transiently expressing rat S10-95 (CG-8). The conditions noted are these: read-out: K1; CG-8, binding data using [3H]5-HT, Table 4.
Procedure: as §2, §3, §4
Assay [9] deals with T4, rat 5-HT4 receptor S10-87 (CG-7). Put plainly: [3H]GR113808 binding (saturation and displacement), COS-7 membranes, rat clone CG-7. Further details: two individual full length cDNA clones, S10-87 and S10-95, were isolated; expressed in transfected cells; host or cells: COS-7 (transient, DEAE-dextran).
Procedure: as §5, §7
Where [10] appears, read: read-out: Ks (apparent dissociation constant of antagonist).
[11] abbreviates: K1 (nM), CG-7, binding data using [3H]5-HT, Table 4.

For orientation: EC50 means the concentration giving half of the maximal effect.

Where two headings read alike, the source gives them in different places.

T1 sequence (Q62758 1-387 isoform Q62758-2): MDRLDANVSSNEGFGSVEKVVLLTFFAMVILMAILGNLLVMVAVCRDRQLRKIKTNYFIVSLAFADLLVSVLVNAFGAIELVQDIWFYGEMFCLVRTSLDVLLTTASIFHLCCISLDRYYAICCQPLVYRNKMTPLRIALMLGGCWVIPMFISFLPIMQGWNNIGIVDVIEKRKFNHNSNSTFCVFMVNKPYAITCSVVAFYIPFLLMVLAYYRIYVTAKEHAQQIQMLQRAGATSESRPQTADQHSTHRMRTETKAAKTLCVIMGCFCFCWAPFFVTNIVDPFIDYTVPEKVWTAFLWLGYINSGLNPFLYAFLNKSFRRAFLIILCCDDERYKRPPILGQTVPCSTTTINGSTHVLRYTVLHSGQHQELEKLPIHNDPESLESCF
T4 sequence (Q62758 1-387 isoform Q62758-2): as above
T3 sequence (Q62758 whole entry): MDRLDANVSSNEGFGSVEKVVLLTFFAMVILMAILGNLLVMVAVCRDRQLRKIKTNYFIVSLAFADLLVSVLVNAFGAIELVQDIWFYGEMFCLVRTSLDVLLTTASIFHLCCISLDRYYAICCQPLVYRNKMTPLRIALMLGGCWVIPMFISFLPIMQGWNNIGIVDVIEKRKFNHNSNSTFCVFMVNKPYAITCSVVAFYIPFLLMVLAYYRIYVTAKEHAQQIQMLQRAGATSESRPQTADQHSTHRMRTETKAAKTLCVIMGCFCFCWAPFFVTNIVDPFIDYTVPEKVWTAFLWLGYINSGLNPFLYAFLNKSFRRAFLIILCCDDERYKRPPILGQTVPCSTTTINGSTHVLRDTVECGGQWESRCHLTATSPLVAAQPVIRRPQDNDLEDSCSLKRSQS
T2 sequence (Q62758 whole entry): as above
T5 sequence (Q13639 whole entry): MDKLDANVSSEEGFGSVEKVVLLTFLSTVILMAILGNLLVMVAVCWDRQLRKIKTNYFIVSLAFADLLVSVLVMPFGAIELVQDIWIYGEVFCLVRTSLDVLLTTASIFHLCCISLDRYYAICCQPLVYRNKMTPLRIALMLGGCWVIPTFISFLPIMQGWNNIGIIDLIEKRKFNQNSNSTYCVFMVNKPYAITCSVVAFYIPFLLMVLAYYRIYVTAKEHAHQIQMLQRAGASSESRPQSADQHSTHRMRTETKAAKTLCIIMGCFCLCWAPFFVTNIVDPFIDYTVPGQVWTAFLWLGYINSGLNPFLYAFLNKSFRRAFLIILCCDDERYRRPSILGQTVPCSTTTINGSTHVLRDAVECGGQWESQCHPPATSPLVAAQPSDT

Consider `CN1[C@@H]2CC[C@H]1C[C@@H](OC(=O)c1c[nH]c3ccccc13)C2` [ICS 205930], for which the entries for the “fold lower affinity in the functional assay as compared to the binding experiments” value in assay [1] (CG-7) and in [2] (CG-8) were roughly 10 fold and “approximately 6 fold”, respectively. For the same molecule, the “agonist / antagonist character” value in [1] and in [2] was “silent antagonist” throughout. In addition, the “I. A. (intrinsic activity)” value in assay [1] and in assay [2] was 0 throughout. In addition, the values for the Kd in assay [1] (setting [10]) and in [2] (setting [10]) were 962 ± 244 nM and 607 ± 30 nM, respectively. Also, the Ki in [3] was 138 ± 26 nM; in [4] (Affinity constants (Ki), CG-7, 10 nM [3H]5-HT, mean ± SEM, >1000 estimated from one point displacement at 1 uM), 115 ± 12 nM; in [4] (setting [11]), 115 ± 12 nM; in assay [5], 529 nM.

With `COc1cc(N)c(Cl)cc1C(=O)NC1CN2CCC1CC2` (stereo not drawn) [Zacopride, zacopride], in assay [6] (human CG-17 compared with rat clones), the “fold higher affinity for the human CG-17 clone” value is on record as “about 7 fold”. For the same molecule, the Ki is 17 nM in assay [6] (read-out: Ki); 136 ± 5 nM in [7]; 136 ± 5 nM in assay [8]; 130 ± 10 nM in assay [4]; 130 ± 10 nM in assay [4] (setting [11]); 729 nM in assay [9] (CG-7, 0.2-0.4 nM [3H]GR113808, single experiment, read-out: Affinity estimate K1). Further, the Ki is 424 nM in assay [9] (CG-7, [3H]GR113808, read-out: KH (affinity for the high affinity state)); 2760 nM in [9] (CG-7, [3H]GR113808, read-out: KL (affinity for the low affinity state)); 820 nM in assay [5]. Further, the “agonist / antagonist character” value in assay [1] and in assay [2] was “partial agonists” in each case. Besides, the “I. A. (intrinsic activity)” value was found to be 1.1 in [1] and 1.0 in assay [2]. Also, the “fold lower affinity than cisapride” value in assay [1] (CG-7, stimulation of adenylate cyclase) was roughly 15 fold. In [1] (CG-7, stimulation of basal cAMP release), the “times less potent than 5-HT” value is reported as roughly 100 fold. The concentration for a half-maximal effect (EC50) in assay [1] (CG-7, stimulation of basal cAMP release, means ± S.E.M. of three experiments, read-out: EC50) amounted to 2740 nM; in assay [2] (CG-8, stimulation of basal cAMP release, means ± S.E.M. of three experiments, read-out: EC50) it was 239 ± 33 nM. Moreover, the “BH (percentage of high affinity sites)” value in [9] (CG-7, [3H]GR113808) stood at 68%. In addition, the “nH (Hill coefficient)” value is recorded as “nH = 0.80” in assay [9] (CG-7, [3H]GR113808) and “nH = 0.85” in assay [5] (CG-8, [3H]GR113808).
